Results reported in ChEMBL document CHEMBL1139808, “Structure-activity relationship study of novel NR2B-selective antagonists with arylamides to avoid reactive metabolites formation” (Bioorg Med Chem Lett, 2007).
pIC50, pKi: −log10 of the molar value.

Tests used:
[1] = molecular target: Glutamate receptor ionotropic, NMDA 2B (Rattus norvegicus, UniProt P35439+Q00960); experiment: Displacement of [3H]racemic CP-101606 from rat NR2B receptor in P2 membrane; assay type: cell membranes
[2] = molecular target: hERG (Homo sapiens, UniProt Q12809); experiment: Inhibition of hERG current at 10 uM; assay type: toxicity
hERG, sequence (Q12809 whole entry): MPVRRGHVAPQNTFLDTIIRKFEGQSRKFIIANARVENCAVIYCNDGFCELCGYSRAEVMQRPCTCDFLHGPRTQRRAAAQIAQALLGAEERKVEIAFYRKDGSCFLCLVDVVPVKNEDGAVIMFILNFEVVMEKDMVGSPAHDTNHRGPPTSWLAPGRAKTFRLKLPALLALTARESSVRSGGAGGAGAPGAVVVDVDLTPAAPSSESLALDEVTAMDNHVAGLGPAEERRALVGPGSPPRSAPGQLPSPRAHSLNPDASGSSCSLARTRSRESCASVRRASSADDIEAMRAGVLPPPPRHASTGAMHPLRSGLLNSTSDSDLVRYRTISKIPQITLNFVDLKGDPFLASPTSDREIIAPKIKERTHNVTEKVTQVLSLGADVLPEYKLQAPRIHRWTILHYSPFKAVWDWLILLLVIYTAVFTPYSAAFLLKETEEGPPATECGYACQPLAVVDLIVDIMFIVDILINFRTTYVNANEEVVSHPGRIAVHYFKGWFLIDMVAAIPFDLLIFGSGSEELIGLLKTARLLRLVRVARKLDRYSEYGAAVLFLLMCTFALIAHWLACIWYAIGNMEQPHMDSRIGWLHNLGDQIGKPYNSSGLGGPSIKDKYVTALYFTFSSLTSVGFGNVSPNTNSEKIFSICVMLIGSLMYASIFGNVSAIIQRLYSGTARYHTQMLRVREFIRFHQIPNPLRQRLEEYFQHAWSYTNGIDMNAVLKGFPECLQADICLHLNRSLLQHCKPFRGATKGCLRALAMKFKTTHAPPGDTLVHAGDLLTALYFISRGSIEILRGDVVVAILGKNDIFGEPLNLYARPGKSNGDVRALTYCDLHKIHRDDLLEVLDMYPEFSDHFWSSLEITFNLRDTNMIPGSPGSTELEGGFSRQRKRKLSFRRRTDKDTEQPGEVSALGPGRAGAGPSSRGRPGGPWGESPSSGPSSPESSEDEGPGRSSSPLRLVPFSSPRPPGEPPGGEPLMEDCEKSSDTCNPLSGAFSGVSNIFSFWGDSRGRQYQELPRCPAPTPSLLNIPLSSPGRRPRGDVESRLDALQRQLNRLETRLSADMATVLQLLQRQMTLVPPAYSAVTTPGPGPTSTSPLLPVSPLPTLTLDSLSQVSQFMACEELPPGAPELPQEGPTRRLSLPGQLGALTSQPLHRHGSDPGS

[3] = organism: Mus musculus; experiment: Analgesic activity in PSL mouse model assessed as latency to paw withdrawal; assay type: functional; settings: read-out: MED
[4] = Bioavailability in rat; assay type: ADME, organism-based; settings: in vivo
[5] = molecular target: Voltage-gated inwardly rectifying potassium channel KCNH2 (Homo sapiens, UniProt Q12809); experiment: Inhibition of hERG; assay type: toxicity
Voltage-gated inwardly rectifying potassium channel KCNH2, sequence (Q12809 whole entry): as above

[6] = Metabolic stability assessed as half life in human liver microsomes; assay type: ADME, Microsome
[7] = tested on: Rattus norvegicus; experiment: Effect on haloperidol catalepsy in po dosed rat assessed as […]; assay type: functional; settings: read-out: MED

Glutamate receptor ionotropic, NMDA 2B, sequence (Q00960 whole entry, one chain of several): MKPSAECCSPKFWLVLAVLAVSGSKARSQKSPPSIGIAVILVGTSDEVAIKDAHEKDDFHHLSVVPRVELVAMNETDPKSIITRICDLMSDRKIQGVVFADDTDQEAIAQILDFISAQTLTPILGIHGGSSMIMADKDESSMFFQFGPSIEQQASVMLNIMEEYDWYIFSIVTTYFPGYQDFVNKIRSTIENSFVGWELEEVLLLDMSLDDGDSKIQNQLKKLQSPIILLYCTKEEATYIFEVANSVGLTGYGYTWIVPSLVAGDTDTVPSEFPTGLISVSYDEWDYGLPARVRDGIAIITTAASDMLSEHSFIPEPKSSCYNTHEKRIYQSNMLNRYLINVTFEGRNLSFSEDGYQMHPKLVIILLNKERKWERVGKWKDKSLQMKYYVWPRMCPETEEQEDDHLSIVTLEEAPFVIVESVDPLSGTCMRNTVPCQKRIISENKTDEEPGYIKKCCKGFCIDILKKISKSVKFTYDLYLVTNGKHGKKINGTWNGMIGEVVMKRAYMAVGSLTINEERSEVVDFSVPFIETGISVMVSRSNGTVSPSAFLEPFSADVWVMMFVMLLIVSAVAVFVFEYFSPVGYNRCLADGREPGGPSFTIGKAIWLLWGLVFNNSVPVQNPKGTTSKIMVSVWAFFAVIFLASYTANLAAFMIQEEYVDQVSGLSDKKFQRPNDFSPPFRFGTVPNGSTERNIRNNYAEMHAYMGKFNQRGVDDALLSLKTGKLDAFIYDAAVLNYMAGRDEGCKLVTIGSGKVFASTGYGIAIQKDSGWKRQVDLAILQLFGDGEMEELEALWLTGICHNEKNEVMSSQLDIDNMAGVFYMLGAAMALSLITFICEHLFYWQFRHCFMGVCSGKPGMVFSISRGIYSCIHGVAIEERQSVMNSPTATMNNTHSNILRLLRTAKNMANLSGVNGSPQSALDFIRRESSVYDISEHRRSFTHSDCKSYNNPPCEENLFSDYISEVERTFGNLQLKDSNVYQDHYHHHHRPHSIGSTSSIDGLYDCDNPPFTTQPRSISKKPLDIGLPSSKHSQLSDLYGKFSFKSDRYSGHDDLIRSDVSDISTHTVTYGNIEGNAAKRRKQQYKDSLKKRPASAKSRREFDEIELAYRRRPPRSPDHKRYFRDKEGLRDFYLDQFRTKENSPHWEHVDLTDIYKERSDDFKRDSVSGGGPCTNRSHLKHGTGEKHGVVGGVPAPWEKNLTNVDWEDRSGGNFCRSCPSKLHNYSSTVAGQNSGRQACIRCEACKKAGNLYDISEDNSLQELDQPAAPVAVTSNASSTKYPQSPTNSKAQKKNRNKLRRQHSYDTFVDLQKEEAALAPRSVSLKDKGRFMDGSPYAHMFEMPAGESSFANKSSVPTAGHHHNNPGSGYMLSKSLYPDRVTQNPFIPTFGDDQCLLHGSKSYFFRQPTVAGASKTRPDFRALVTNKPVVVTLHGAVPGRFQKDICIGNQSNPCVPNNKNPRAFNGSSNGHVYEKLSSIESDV

Row | pKi [1] | Structure (SMILES) | also measured
1 | 8.38 | O=C(NC[C@H]1CC[C@@H](CCOc2ccccc2)CC1)c1cn[nH]c1 | inhibition at 10 µM [2]: 36%; minimal effective dose [3]: 3 mg/kg; bioavailability [4]: 43%; pIC50 [5]: < 4.52
2 | 8.17 | O=C(NC[C@H]1CC[C@@H](COc2ccccc2)CC1)c1ccc(O)cc1 | half-life [6]: 2.3 min; minimal effective dose [7]: 3 mg/kg
3 | 8.17 | O=C(NC[C@H]1CC[C@@H](CCOc2ccccc2)CC1)c1cc[nH]c1 | –
4 | 7.74 | O=C1CCc2cc(C(=O)NC[C@H]3CC[C@@H](COc4ccccc4)CC3)ccc2N1 | –
5 | 8.05 | O=C(NC[C@H]1CC[C@@H](CCOc2ccccc2)CC1)c1ccn[nH]1 | half-life [6]: 36 min
6 | 7.85 | O=C(NC[C@H]1CC[C@@H](COc2ccccc2)CC1)c1cn[nH]c1 | half-life [6]: 44 min
7 | 7.08 | O=C(NC[C@H]1CC[C@@H](COc2ccccc2)CC1)c1cc[nH]c1 | –
8 | 7.70 | O=C(NC[C@H]1CC[C@@H](CCOc2ccccc2)CC1)c1ccc(O)cc1 | –
9 | 7.92 | O=C(NC[C@H]1CC[C@@H](COc2ccccc2)CC1)c1cc(F)c(O)c(F)c1 | –

Second part, the molecule before the results:

Row | Structure (SMILES) | pKi [1] | also measured
10 | O=C(NCc1cccc(OCCc2ccccc2)c1)c1ccc(O)cc1 | 8.25 | –
11 | O=C(NC[C@H]1CC[C@@H](COc2ccccc2)CC1)c1ccn[nH]1 | < 7.00 | –
12 | O=C(NC[C@H]1CC[C@@H](CCOc2ccccc2)CC1)c1cc(F)c(O)c(F)c1 | 8.07 | –
13 | Nc1[nH]ncc1C(=O)NC[C@H]1CC[C@@H](COc2ccccc2)CC1 | < 7.00 | –
14 | Nc1n[nH]cc1C(=O)NC[C@H]1CC[C@@H](CCOc2ccccc2)CC1 | 8.43 | half-life [6]: 59 min
15 | O=C(NC[C@H]1CC[C@@H](CCOc2ccccc2)CC1)c1ccc(=O)[nH]n1 | 8.25 | –
16 | O=C1C=CC(C(=O)NC[C@H]2CC[C@@H](COc3ccccc3)CC2)NN1 (stereo partly drawn) | < 7.00 | –
17 | O=C1C=CC(C(=O)NC[C@H]2CC[C@@H](CCOc3ccccc3)CC2)NN1 (stereo partly drawn) | 7.96 | –
18 | Cc1n[nH]c(C)c1C(=O)NC[C@H]1CC[C@@H](COc2ccccc2)CC1 | < 7.00 | –
19 | Cc1n[nH]c(C)c1C(=O)NC[C@H]1CC[C@@H](CCOc2ccccc2)CC1 | < 7.00 | –
20 | O=C(NC[C@H]1CC[C@@H](CCOc2ccccc2)CC1)c1ccc2[nH]ncc2c1 | 7.82 | –
21 | O=C(NC[C@H]1CC[C@@H](COc2ccccc2)CC1)c1ccc(=O)[nH]n1 | < 7.00 | –
22 | O=C(NCc1cccc(C(=O)NCc2ccccc2)c1)c1ccc(O)cc1 | 7.82 | pIC50 [5]: < 4.52
23 | O=C1CCc2cc(C(=O)NC[C@H]3CC[C@@H](CCOc4ccccc4)CC3)ccc2N1 | 8.23 | –
